{"source": "ChEMBL document CHEMBL3046013", "about": "“Pyrithiobac reduces control of green foxtail (Setaria viridis) and bristly foxtail (Setaria verticillata) by propaquizafop” (2009)", "type_in_all_cases": "functional", "parameters_in_all_cases": "scale not given: the % may be the effect or the level left", "key": {"Setaria verticillata [1]": {"system": "Setaria verticillata", "assay": "Herbicidal activity against Setaria verticillata assessed as reduction of fresh weight at 75 g ai/ha after 45 days relative to control in presence of ammonium sulphate"}, "Setaria viridis [2]": {"system": "Setaria viridis", "assay": "Herbicidal activity against Setaria viridis (green foxtail) assessed as reduction of fresh weight at 75 g ai/ha after 45 days in presence of 68 g ai/ha of pyrithiobac and ammonium sulphate relative to control"}, "Setaria viridis [3]": {"system": "Setaria viridis", "assay": "Herbicidal activity against Setaria viridis (green foxtail) assessed as reduction of fresh weight at 75 g ai/ha after 45 days in presence of 68 g ai/ha of pyrithiobac treated 1 day before compound challenge relative to control"}, "Setaria verticillata [4]": {"system": "Setaria verticillata", "assay": "Herbicidal activity against Setaria verticillata assessed as reduction of fresh weight at 125 g ai/ha after 45 days relative to control"}, "Setaria viridis [5]": {"system": "Setaria viridis", "assay": "Herbicidal activity against Setaria viridis (green foxtail) assessed as reduction of fresh weight at 75 g ai/ha after 45 days in presence of 68 g ai/ha of pyrithiobac treated 3 days after compound challenge relative to control"}, "Setaria verticillata [6]": {"system": "Setaria verticillata", "assay": "Herbicidal activity against Setaria verticillata assessed as reduction of fresh weight at 75 g ai/ha after 45 days in presence of 68 g ai/ha of pyrithiobac treated 1 day after compound challenge relative to control"}, "Setaria viridis [7]": {"system": "Setaria viridis", "assay": "Herbicidal activity against Setaria viridis (green foxtail) assessed as reduction of fresh weight at 100 g ai/ha after 45 days relative to control"}, "Setaria verticillata [8]": {"system": "Setaria verticillata", "assay": "Herbicidal activity against Setaria verticillata assessed as reduction of fresh weight at 75 g ai/ha after 45 days in presence of 68 g ai/ha of pyrithiobac treated 1 day before compound challenge relative to control"}, "Setaria verticillata [9]": {"system": "Setaria verticillata", "assay": "Herbicidal activity against Setaria verticillata assessed as reduction of fresh weight at 125 g ai/ha after 45 days in presence of 68 g ai/ha of pyrithiobac relative to control"}, "Setaria verticillata [10]": {"system": "Setaria verticillata", "assay": "Herbicidal activity against Setaria verticillata assessed as reduction of fresh weight at 75 g ai/ha after 45 days in presence of 68 g ai/ha of pyrithiobac treated 3 days after compound challenge relative to control"}, "Setaria viridis [11]": {"system": "Setaria viridis", "assay": "Herbicidal activity against Setaria viridis (green foxtail) assessed as reduction of fresh weight at 75 g ai/ha after 45 days relative to control in presence of ammonium sulphate"}, "Setaria verticillata [12]": {"system": "Setaria verticillata", "assay": "Herbicidal activity against Setaria verticillata assessed as reduction of fresh weight at 75 g ai/ha after 45 days in presence of 68 g ai/ha of pyrithiobac treated 3 days before compound challenge relative to control"}, "Setaria verticillata [13]": {"system": "Setaria verticillata", "assay": "Herbicidal activity against Setaria verticillata assessed as reduction of fresh weight at 75 g ai/ha after 45 days in presence of 68 g ai/ha of pyrithiobac relative to control"}, "Setaria viridis [14]": {"system": "Setaria viridis", "assay": "Herbicidal activity against Setaria viridis (green foxtail) assessed as reduction of fresh weight at 150 g ai/ha after 45 days relative to control"}, "Setaria viridis [15]": {"system": "Setaria viridis", "assay": "Herbicidal activity against Setaria viridis (green foxtail) assessed as reduction of fresh weight at 150 g ai/ha after 45 days in presence of 68 g ai/ha of pyrithiobac relative to control"}, "Setaria viridis [16]": {"system": "Setaria viridis", "assay": "Herbicidal activity against Setaria viridis (green foxtail) assessed as reduction of fresh weight at 100 g ai/ha after 45 days in presence of 68 g ai/ha of pyrithiobac relative to control"}, "Setaria viridis [17]": {"system": "Setaria viridis", "assay": "Herbicidal activity against Setaria viridis (green foxtail) assessed as reduction of fresh weight at 75 g ai/ha after 45 days relative to control"}, "Setaria verticillata [18]": {"system": "Setaria verticillata", "assay": "Herbicidal activity against Setaria verticillata assessed as reduction of fresh weight at 75 g ai/ha after 45 days relative to control"}, "Setaria verticillata [19]": {"system": "Setaria verticillata", "assay": "Herbicidal activity against Setaria verticillata assessed as reduction of fresh weight at 150 g ai/ha after 45 days in presence of 68 g ai/ha of pyrithiobac relative to control"}, "Setaria verticillata [20]": {"system": "Setaria verticillata", "assay": "Herbicidal activity against Setaria verticillata assessed as reduction of fresh weight at 100 g ai/ha after 45 days relative to control"}, "Setaria viridis [21]": {"system": "Setaria viridis", "assay": "Herbicidal activity against Setaria viridis (green foxtail) assessed as reduction of fresh weight at 125 g ai/ha after 45 days in presence of 68 g ai/ha of pyrithiobac relative to control"}, "Setaria verticillata [22]": {"system": "Setaria verticillata", "assay": "Herbicidal activity against Setaria verticillata assessed as reduction of fresh weight at 150 g ai/ha after 45 days relative to control"}, "Setaria viridis [23]": {"system": "Setaria viridis", "assay": "Herbicidal activity against Setaria viridis (green foxtail) assessed as reduction of fresh weight at 75 g ai/ha after 45 days in presence of 68 g ai/ha of pyrithiobac relative to control"}, "Setaria viridis [24]": {"system": "Setaria viridis", "assay": "Herbicidal activity against Setaria viridis (green foxtail) assessed as reduction of fresh weight at 125 g ai/ha after 45 days relative to control"}, "Setaria viridis [25]": {"system": "Setaria viridis", "assay": "Herbicidal activity against Setaria viridis (green foxtail) assessed as reduction of fresh weight at 75 g ai/ha after 45 days in presence of 68 g ai/ha of pyrithiobac treated 3 days before compound challenge relative to control"}, "Setaria verticillata [26]": {"system": "Setaria verticillata", "assay": "Herbicidal activity against Setaria verticillata assessed as reduction of fresh weight at 100 g ai/ha after 45 days in presence of 68 g ai/ha of pyrithiobac relative to control"}, "Setaria viridis [27]": {"system": "Setaria viridis", "assay": "Herbicidal activity against Setaria viridis (green foxtail) assessed as reduction of fresh weight at 75 g ai/ha after 45 days in presence of 68 g ai/ha of pyrithiobac treated 1 day after compound challenge relative to control"}}}
{"compound": "CC(C)=NOCCOC(=O)[C@@H](C)Oc1ccc(Oc2cnc3cc(Cl)ccc3n2)cc1", "note": "[PROPAQUIZAFOP]", "values": [{"measurement": "Activity", "setting": "Setaria verticillata [1]", "value": 94, "unit": "%"}, {"measurement": "Activity", "setting": "Setaria viridis [2]", "value": 57, "unit": "%"}, {"measurement": "Activity", "setting": "Setaria viridis [3]", "value": 56, "unit": "%"}, {"measurement": "Activity", "setting": "Setaria verticillata [4]", "value": 99, "unit": "%"}, {"measurement": "Activity", "setting": "Setaria viridis [5]", "value": 85, "unit": "%"}, {"measurement": "Activity", "setting": "Setaria verticillata [6]", "value": 90, "unit": "%"}, {"measurement": "Activity", "setting": "Setaria viridis [7]", "value": 91, "unit": "%"}, {"measurement": "Activity", "setting": "Setaria verticillata [8]", "value": 75, "unit": "%"}, {"measurement": "Activity", "setting": "Setaria verticillata [9]", "value": 78, "unit": "%"}, {"measurement": "Activity", "setting": "Setaria verticillata [10]", "value": 93, "unit": "%"}, {"measurement": "Activity", "setting": "Setaria viridis [11]", "value": 89, "unit": "%"}, {"measurement": "Activity", "setting": "Setaria verticillata [12]", "value": 81, "unit": "%"}, {"measurement": "Activity", "setting": "Setaria verticillata [13]", "value": 70, "unit": "%"}, {"measurement": "Activity", "setting": "Setaria viridis [14]", "value": 99, "unit": "%"}, {"measurement": "Activity", "setting": "Setaria viridis [15]", "value": 72, "unit": "%"}, {"measurement": "Activity", "setting": "Setaria viridis [16]", "value": 59, "unit": "%"}, {"measurement": "Activity", "setting": "Setaria viridis [17]", "value": 86, "unit": "%"}, {"measurement": "Activity", "setting": "Setaria verticillata [18]", "value": 92, "unit": "%"}, {"measurement": "Activity", "setting": "Setaria verticillata [19]", "value": 83, "unit": "%"}, {"measurement": "Activity", "setting": "Setaria verticillata [20]", "value": 95, "unit": "%"}, {"measurement": "Activity", "setting": "Setaria viridis [21]", "value": 66, "unit": "%"}, {"measurement": "Activity", "setting": "Setaria verticillata [22]", "value": 100, "unit": "%"}, {"measurement": "Activity", "setting": "Setaria viridis [23]", "value": 53, "unit": "%"}, {"measurement": "Activity", "setting": "Setaria viridis [24]", "value": 97, "unit": "%"}, {"measurement": "Activity", "setting": "Setaria viridis [25]", "value": 66, "unit": "%"}, {"measurement": "Activity", "setting": "Setaria verticillata [26]", "value": 73, "unit": "%"}, {"measurement": "Activity", "setting": "Setaria viridis [27]", "value": 82, "unit": "%"}]}
